Experimental data reported in ChEMBL document CHEMBL1156204, “Spectacular modification of Gambogic acid on microwave irradiation in methanol: isolation and structure identification of two products with potent anti-tumor activity” (Bioorg Med Chem Lett, 2010).
Calls of active or inactive are those of the source. The calls are words filed in the database; no cut-off is given here.

Legend:
HepG2 [1] = assay: Cytotoxicity against human HepG2 cells after 48 hrs by MTT assay; type: functional, cell-based; conditions: HepG2, 48 h
[2] = Cytotoxicity against human BGC803 cells after 48 hrs by MTT assay; type: functional, cell-based; conditions: BGC803, 48 h
SGC-7901 = assay: Cytotoxicity against human SGC7901 cells after 48 hrs by MTT assay; type: functional, cell-based; conditions: SGC-7901, 48 h
MCF7 = assay: Cytotoxicity against human MCF7 cells after 48 hrs by MTT assay; type: functional, cell-based; conditions: MCF7, 48 h
HepG2 [3] = assay: Effect on human HepG2 cell morphology assessed as cell elongation at 1.25 to 5 uM after 24 hrs by inverted-light microscopy; type: functional, cell-based
HepG2 [4] = assay: Effect on human HepG2 cell morphology assessed as induction of membrane blebbing at 1.25 to 5 uM after 24 hrs by inverted-light microscopy; type: functional, cell-based
HepG2 [5] = assay: Effect on human HepG2 cell morphology assessed as induction of cell shrinkage at 1.25 to 5 uM after 24 hrs by inverted-light microscopy; type: functional, cell-based
HepG2 [6] = assay: Effect on human HepG2 cell morphology assessed as formation of round cells at 1.25 to 5 uM after 24 hrs by inverted-light microscopy; type: functional, cell-based
HepG2 [7] = assay: Induction of necrosis in human HepG2 cells at 1.25 to 5 uM after 24 hrs by inverted-light microscopy; type: functional, cell-based
HepG2 [8] = assay: Effect on human HepG2 cell morphology assessed as cell elongation at 0.5 to 2 uM after 24 hrs by inverted-light microscopy; type: functional, cell-based
HepG2 [9] = assay: Effect on human HepG2 cell morphology assessed as induction of membrane blebbing at 0.5 to 2 uM after 24 hrs by inverted-light microscopy; type: functional, cell-based
HepG2 [10] = assay: Effect on human HepG2 cell morphology assessed as induction of cell shrinkage at 0.5 to 2 uM after 24 hrs by inverted-light microscopy; type: functional, cell-based
HepG2 [11] = assay: Effect on human HepG2 cell morphology assessed as formation of round cells at 0.5 to 2 uM after 24 hrs by inverted-light microscopy; type: functional, cell-based
HepG2 [12] = assay: Induction of necrosis in human HepG2 cells at 0.5 to 2 uM after 24 hrs by inverted-light microscopy; type: functional, cell-based
HepG2 [13] = assay: Induction of apoptosis in human HepG2 cells assessed as nuclear condensation at 1.25 to 5 uM after 24 hrs by DAPI staining-based fluorescence microscopy; type: functional, cell-based
HepG2 [14] = assay: Induction of apoptosis in human HepG2 cells assessed as nuclear condensation at 0.5 to 2 uM after 24 hrs by DAPI staining-based fluorescence microscopy; type: functional, cell-based
HepG2 [15] = assay: Induction of apoptosis in human HepG2 cells assessed as appearance of apoptotic bodies at 1.25 to 5 uM after 24 hrs by fluorescence microscopy; type: functional, cell-based
HepG2 [16] = assay: Induction of apoptosis in human HepG2 cells assessed as appearance of apoptotic bodies at 0.5 to 2 uM after 24 hrs by fluorescence microscopy; type: functional, cell-based
HepG2 [17] = assay: Induction of apoptosis in human HepG2 cells assessed as dead cells at 1.25 uM after 24 hrs using annexin-V and propidium iodide staining by flow cytometry; type: functional
HepG2 [18] = assay: Induction of apoptosis in human HepG2 cells assessed as late apoptotic cells at 1.25 uM after 24 hrs using annexin-V and propidium iodide staining by flow cytometry; type: functional
HepG2 [19] = assay: Induction of apoptosis in human HepG2 cells assessed as early apoptotic cells at 1.25 uM after 24 hrs using annexin-V and propidium iodide staining by flow cytometry; type: functional
HepG2 [20] = assay: Induction of apoptosis in human HepG2 cells assessed as viable cells at 1.25 uM after 24 hrs using annexin-V and propidium iodide staining by flow cytometry; type: functional; conditions: HepG2, 24 h, read-out: Activity
HepG2 [21] = assay: Induction of apoptosis in human HepG2 cells assessed as dead cells at 2.5 uM after 24 hrs using annexin-V and propidium iodide staining by flow cytometry; type: functional
HepG2 [22] = assay: Induction of apoptosis in human HepG2 cells assessed as late apoptotic cells at 2.5 uM after 24 hrs using annexin-V and propidium iodide staining by flow cytometry; type: functional
HepG2 [23] = assay: Induction of apoptosis in human HepG2 cells assessed as early apoptotic cells at 2.5 uM after 24 hrs using annexin-V and propidium iodide staining by flow cytometry; type: functional
HepG2 [24] = assay: Induction of apoptosis in human HepG2 cells assessed as viable cells at 2.5 uM after 24 hrs using annexin-V and propidium iodide staining by flow cytometry; type: functional; conditions: HepG2, 24 h, read-out: Activity
HepG2 [25] = assay: Induction of apoptosis in human HepG2 cells assessed as dead cells at 5 uM after 24 hrs using annexin-V and propidium iodide staining by flow cytometry; type: functional
HepG2 [26] = assay: Induction of apoptosis in human HepG2 cells assessed as late apoptotic cells at 5 uM after 24 hrs using annexin-V and propidium iodide staining by flow cytometry; type: functional
HepG2 [27] = assay: Induction of apoptosis in human HepG2 cells assessed as early apoptotic cells at 5 uM after 24 hrs using annexin-V and propidium iodide staining by flow cytometry; type: functional
HepG2 [28] = assay: Induction of apoptosis in human HepG2 cells assessed as viable cells at 5 uM after 24 hrs using annexin-V and propidium iodide staining by flow cytometry; type: functional; conditions: HepG2, 24 h, read-out: Activity
HepG2 [29] = assay: Induction of apoptosis in human HepG2 cells assessed as decrease in Bcl-2 expression at 1.25 to 5 uM after 24 hrs; type: functional, cell-based
HepG2 [30] = assay: Induction of apoptosis in human HepG2 cells assessed as decrease in procaspase-3 expression at 1.25 to 5 uM after 24 hrs; type: functional, cell-based
HepG2 [31] = assay: Induction of apoptosis in human HepG2 cells assessed as dead cells at 0.5 uM after 24 hrs using annexin-V and propidium iodide staining by flow cytometry; type: functional
HepG2 [32] = assay: Induction of apoptosis in human HepG2 cells assessed as late apoptotic cells at 0.5 uM after 24 hrs using annexin-V and propidium iodide staining by flow cytometry; type: functional
HepG2 [33] = assay: Induction of apoptosis in human HepG2 cells assessed as early apoptotic cells at 0.5 uM after 24 hrs using annexin-V and propidium iodide staining by flow cytometry; type: functional
HepG2 [34] = assay: Induction of apoptosis in human HepG2 cells assessed as viable cells at 0.5 uM after 24 hrs using annexin-V and propidium iodide staining by flow cytometry; type: functional; conditions: HepG2, 24 h, read-out: Activity
HepG2 [35] = assay: Induction of apoptosis in human HepG2 cells assessed as dead cells at 1 uM after 24 hrs using annexin-V and propidium iodide staining by flow cytometry; type: functional
HepG2 [36] = assay: Induction of apoptosis in human HepG2 cells assessed as late apoptotic cells at 1 uM after 24 hrs using annexin-V and propidium iodide staining by flow cytometry; type: functional
HepG2 [37] = assay: Induction of apoptosis in human HepG2 cells assessed as early apoptotic cells at 1 uM after 24 hrs using annexin-V and propidium iodide staining by flow cytometry; type: functional
HepG2 [38] = assay: Induction of apoptosis in human HepG2 cells assessed as viable cells at 1 uM after 24 hrs using annexin-V and propidium iodide staining by flow cytometry; type: functional; conditions: HepG2, 24 h, read-out: Activity
HepG2 [39] = assay: Induction of apoptosis in human HepG2 cells assessed as dead cells at 2 uM after 24 hrs using annexin-V and propidium iodide staining by flow cytometry; type: functional
HepG2 [40] = assay: Induction of apoptosis in human HepG2 cells assessed as late apoptotic cells at 2 uM after 24 hrs using annexin-V and propidium iodide staining by flow cytometry; type: functional
HepG2 [41] = assay: Induction of apoptosis in human HepG2 cells assessed as early apoptotic cells at 2 uM after 24 hrs using annexin-V and propidium iodide staining by flow cytometry; type: functional
HepG2 [42] = assay: Induction of apoptosis in human HepG2 cells assessed as viable cells at 2 uM after 24 hrs using annexin-V and propidium iodide staining by flow cytometry; type: functional; conditions: HepG2, 24 h, read-out: Activity
HepG2 [43] = assay: Induction of apoptosis in human HepG2 cells assessed as increase in bax expression at 0.5 to 2 uM after 24 hrs; type: functional, cell-based
HepG2 [44] = assay: Induction of apoptosis in human HepG2 cells assessed as decrease in procaspase-3 expression at 0.5 to 2 uM after 24 hrs; type: functional, cell-based
HepG2 [45] = assay: Induction of apoptosis in human HepG2 cells assessed as increase in active caspase-3 expression at 0.5 to 2 uM after 24 hrs; type: functional, cell-based

Structure (SMILES)	IC50 (HepG2 [1]) [nM]	IC50 [2] [nM]	IC50 (SGC-7901) [nM]	IC50 (MCF7) [nM]	Activity (HepG2 [3])	Activity (HepG2 [4])	Activity (HepG2 [5])	Activity (HepG2 [6])	Activity (HepG2 [7])	Activity (HepG2 [8])	Activity (HepG2 [9])	Activity (HepG2 [10])	Activity (HepG2 [11])	Activity (HepG2 [12])	Activity (HepG2 [13])	Activity (HepG2 [14])	Activity (HepG2 [15])	Activity (HepG2 [16])	further results
CC(C)=CCC[C@]1(C)C=Cc2c(O)c3c(c(CC=C(C)C)c2O1)O[C@]12C(=C[C@@H]4C[C@H]1C(C)(C)O[C@@]2(C/C=C(/C)C(=O)O)C4=O)C3=O [GAMBOGIC ACID]	2400	1540	1470	500															
COC(=O)/C(C)=C\C[C@@]12OC(C)(C)[C@@H]3C[C@@H](C=C4C(=O)c5c(O)c6c(c(CC=C(C)C)c5O[C@]431)O[C@](C)(CCC=C(C)C)C=C6)C2=O [METHYL GAMBOGATE]	2530	1240	790	520															
COC(=O)/C(C)=C\C[C@@]12OC(C)(C)[C@@H]3C[C@@H](C=C4C(=O)c5c(O)c6c(c(CC=C(C)C)c5O[C@]431)O[C@]1(C)CCC(=C(C)C)C6C1)C2=O	1960	1450	2150	1880	Active	Active	Active	Active	Active	Active	Active	Active	Active	Active	Active	Active	Active	Active	Activity (HepG2 [17]): 0.4%; Activity (HepG2 [18]): 4%; Activity (HepG2 [19]): 5.7%; viability at 1.25 µM (HepG2 [20]): 89.8%; Activity (HepG2 [21]): 1.4%; Activity (HepG2 [22]): 4.1%; Activity (HepG2 [23]): 13.6%; viability at 2.5 µM (HepG2 [24]): 80.9%; Activity (HepG2 [25]): 1.8%; Activity (HepG2 [26]): 4.4%; Activity (HepG2 [27]): 20.7%; viability at 5 µM (HepG2 [28]): 73.2%; Activity (HepG2 [29]): Active; Activity (HepG2 [30]): Active
COC(=O)/C(C)=C\C[C@@]12OC(C)(C)[C@@H]3C[C@@H](C=C4C(=O)c5c(O)c(C6C[C@](C)(OC)CCC6=C(C)C)c6c(c5O[C@]431)CCC(C)(C)O6)C2=O (stereo partly drawn)	1530	2010	1510	1240	Active	Active	Active	Active	Active	Active	Active	Active	Active	Active	Active	Active	Active	Active	Activity (HepG2 [31]): 0.3%; Activity (HepG2 [32]): 1.3%; Activity (HepG2 [33]): 4.3%; viability at 0.5 µM (HepG2 [34]): 94%; Activity (HepG2 [35]): 0.9%; Activity (HepG2 [36]): 2.5%; Activity (HepG2 [37]): 12.9%; viability at 1 µM (HepG2 [38]): 83.7%; Activity (HepG2 [39]): 3.4%; Activity (HepG2 [40]): 8.1%; Activity (HepG2 [41]): 35%; viability at 2 µM (HepG2 [42]): 53.6%; Activity (HepG2 [43]): Active; Activity (HepG2 [44]): Active; Activity (HepG2 [45]): Active
